{"source": "patent US7687511B2", "about": "“Substituted dihydropyrimidines, dihydropyrimidones and dihydropyrimidinethiones as calcium channel blockers” (priority 2002, dated 2010)", "data": [{"smiles": "CCCCCCCCCCCCCCCc1cccc(OC)c1C1NC(=O)NC(C)=C1C(=O)OCC", "note": "(stereo not drawn) [PPK-22, 5-ethoxycarbonyl-4-(2-methoxy-6-pentadecylphenyl)-6-methyl-3,4-dihydropyrimidin-2(1H)-one]", "values": [{"measurement": "melting point", "value": "91 to 93", "unit": "°C"}]}, {"smiles": "CCCCCCCCCCCCCCCc1cccc(OCC)c1C1NC(=O)NC(C)=C1C(=O)OC", "note": "(stereo not drawn) [PPK-23, 5-methoxycarbonyl-4-(2-ethoxy-6-pentadecylphenyl)-6-methyl-3,4-dihydropyrimidin-2(1H)-one]", "values": [{"measurement": "melting point", "value": "127 to 129", "unit": "°C"}]}, {"smiles": "CCCCCCCCCCCCCCCc1cccc(OC)c1C1NC(=O)NC(C)=C1C(=O)OC", "note": "(stereo not drawn) [PPK-24, 5-methoxycarbonyl-4-(2-methoxy-6-pentadecylphenyl)-6-methyl-3,4-dihydropyrimidin-2(1H)-one]", "values": [{"measurement": "melting point", "value": "101 to 102", "unit": "°C"}]}, {"smiles": "CCCCCCCCCCCCCCCc1cccc(OCC)c1C1NC(=O)NC(C)=C1C(=O)OCC", "note": "(stereo not drawn) [PPK-25, 5-ethoxycarbonyl-4-(2-ethoxy-6-pentadecylphenyl)-6-methyl-3,4-dihydropyrimidin-2(1H)-one]", "values": [{"measurement": "melting point", "value": "99 to 100", "unit": "°C"}]}, {"smiles": "CCCCCCCCCCCCCCCc1cccc(OC)c1C1C(C(=O)OC)=C(C)NC(=O)N1C(=O)OCC", "note": "(stereo not drawn) [PPK-30, 3,6-dihydro-4-methyl-6-[2-methoxy-6-pentadecylphenyl]-2-oxo-1,5-(2H)-pyrimidinedicarboxylic acid 1-ethyl 5-methyl diester]", "values": [{"measurement": "melting point", "value": "121 to 122", "unit": "°C"}]}, {"smiles": "CCCCCCCCCCCCCCCc1cccc(OC)c1C1C(C(=O)OCC)=C(C)NC(=O)N1C(=O)OCC", "note": "(stereo not drawn) [PPK-31, 3,6-dihydro-4-methyl-6-[2-methoxy-6-pentadecylphenyl]-2-oxo-1,5-(2H)-pyrimidinedicarboxylic acid bis(ethyl ester)]", "values": [{"measurement": "melting point", "value": "109 to 110", "unit": "°C"}]}, {"smiles": "CCCCCCCCCCCCCCCc1cccc(OC)c1C1C(C(=O)OC(C)C)=C(C)NC(=O)N1C(=O)OCC", "note": "(stereo not drawn) [PPK-32, 3,6-dihydro-4-methyl-6-[2-methoxy-6-pentadecylphenyl]-2-oxo-1,5-(2H)-pyrimidinedicarboxylic acid 1-ethyl 5-isopropyl diester]", "values": [{"measurement": "melting point", "value": 100, "unit": "°C"}]}, {"smiles": "CCCCCCCCCCCCCCCc1cccc(OCC)c1C1C(C(=O)OC)=C(C)NC(=O)N1C(=O)OCC", "note": "(stereo not drawn) [PPK-33, 3,6-dihydro-4-methyl-6-[2-ethoxy-6-pentadecylphenyl]-2-oxo-1,5-(2H)-pyrimidinedicarboxylic acid 1-ethyl 5-methyl diester]", "values": [{"measurement": "melting point", "value": 103, "unit": "°C"}]}, {"smiles": "CCCCCCCCCCCCCCCc1cccc(OCC)c1C1C(C(=O)OCC)=C(C)NC(=O)N1C(=O)OCC", "note": "(stereo not drawn) [PPK-34, 3,6-dihydro-4-methyl-6-[2-ethoxy-6-pentadecylphenyl]-2-oxo-1,5-(2H)-pyrimidinedicarboxylic acid 1,5-diethyl diester]", "values": [{"measurement": "melting point", "value": 112, "unit": "°C"}]}, {"smiles": "CCCCCCCCCCCCCCCc1cccc(OC(C)C)c1C1C(C(=O)OC)=C(C)NC(=O)N1C(=O)OCC", "note": "(stereo not drawn) [PPK-36, 3,6-dihydro-4-methyl-6-[2-isopropoxy-6-pentadecylphenyl]-2-oxo-1,5-(2H)-pyrimidinedicarboxylic acid 1-ethyl 5-methyl diester]", "values": [{"measurement": "melting point", "value": "120 to 121", "unit": "°C"}]}, {"smiles": "CCCCCCCCCCCCCCCc1cccc(OC(C)C)c1C1C(C(=O)OCC)=C(C)NC(=O)N1C(=O)OCC", "note": "(stereo not drawn) [PPK-37, 3,6-dihydro-4-methyl-6-[2-isopropoxy-6-pentadecylphenyl]-2-oxo-1,5-(2H)-pyrimidinedicarboxylic acid 1,5-diethyl diester]", "values": [{"measurement": "melting point", "value": "90 to 92", "unit": "°C"}]}, {"smiles": "CCCCCCCCCCCCCCCc1cccc(OC(C)C)c1C1C(C(=O)OC(C)C)=C(C)NC(=O)N1C(=O)OCC", "note": "(stereo not drawn) [PPK-38, 3,6-dihydro-4-methyl-6-[2-isopropoxy-6-pentadecylphenyl]-2-oxo-1,5-(2H)-pyrimidinedicarboxylic acid 1-ethyl 5-isopropyl diester]", "values": [{"measurement": "melting point", "value": "88 to 90", "unit": "°C"}]}]}
